Read-outs that look alike come from different tables or passages of the source.
Legend:
human Cav1.2 [1] = molecular target: T1, human Cav1.2 (Homo sapiens, UniProt Q13936)
Description: (§1) 24 hours prior an electrophysiology experiment, doxycycline (1 μg/ml) was added to the growth medium (Table 1), and 25 μM of verapamil was co-applied to prevent calcium influx triggered cell death. Cell confluency should reach 70%-80% right before the experiment.
(§2) To harvest cells (from a T175 cm^2 flask as an example), growth media were removed completely, and the cells were rinsed with 10 mL of D-PBS. D-PBS was aspirated, and 10 mL of Detachin (Genlantis) was added and the plate was placed in a 37° C. incubator for 10 minutes. Detached cells were placed into a 15 mL conical tube and spun at 1000 rpm for 2 minutes. Supernatant was removed, and cells were re-suspended in QPatch complete media (Table 2) to desired cell density of 1.5-3 million cells per QPatch run. Each experimental run uses 1.5 mL of cells.
(§3) The cells suspension was taken to the Sophion QPatch platform that uses whole-cell voltage clamp to measure barium currents conducted through Cav1.2 on single-hole QPlates. […] A dose-response assay protocol was used to determine the maximal fold change of peak inward current (Emax) and potency (EC50) of each compound. The protocol had eight liquid periods. The first liquid period was to stabilize current amplitude, which was monitored using repetitive 200-ms voltage pulses stepping from −80 mV to 0 mV. The second liquid period was to determine baseline current amplitude in the presence of vehicle control, using a single 20-ms voltage pulse stepping from −80 mV to 0 mV. The third through eighth liquid periods were used to ascertain a 6-dose response to compound treatments, also using single 20-ms voltage pulses stepping from −80 mV to 0 mV. The EC50 was generated using the following equation Iconcentration=Ibase+(Ifull−Ibase)*c^n/(XC50^n+c^n), where c is the concentration and n is the Hill coefficient constant. Ifull is the maximal current achievable, and Ibase is 0.

human Cav1.2 [2] = molecular target: T1, human Cav1.2; experiment: Sophion QPatch whole-cell voltage clamp dose-response assay, Cav1.2-HEK293(AUX) cell line (barium currents); settings: for QPatch Emax: maximal fold change of peak inward current; for EC50: QPatch EC50, 6-point dose response, 20-ms pulses from −80 mV to 0 mV, n = 1 unless marked (* n = 2, # n = 3)
Description: as §1, §2, §3

human Cav1.2 [3] = molecular target: T1, human Cav1.2; experiment: QPatch channel biophysics assay (current-voltage relationship, V1/2, tau of inactivation), Cav1.2-HEK293(AUX) cell line; assay type: cell-based; set-up: expressed in transfected cells; host or cells: Flp-In 293 T-Rex (HEK293), clone 2-19B, stably transfected with pCMV6-entry-CACNA1C and pcDNA5H/FRT-TO-CACNA2D2-FCS-P2A-CACNB2; settings: shift of half-way channel activation voltage (V1/2)
Description: Clonal isolation was achieved under Neomycin selection.
Each experimental run uses 1.5 mL of cells.
The protocol had eight liquid periods. […] The protocol had four liquid periods.

[4] = mouse, in vivo, ip
Description: (§4) Compound administration and brain tissue collection. Wild-type C57BL/6J male mice were obtained from Jackson laboratories (Bar Harbor, Me.). The acute, single-dose effects of Cav1.2 activators of the present disclosure were evaluated in male eight-week old mice (n=6 mice per compound). Each compound was dissolved in 10% PEG300, 10% Solutol, 10% Cremophore EL, and 70% Phosphate Buffered Saline and administered intraperitoneal (i.p.) at a concentration of 1 mg/kg up to 30 mg/kg depending on the compound. Animals were euthanized one hour after compound administration via exsanguination under deep anesthesia. Blood was collected in EDTA tubes for downstream analysis of drug levels. Brains were rapidly removed from the skull, and the cerebral cortex and cerebellum were regionally dissected. Cerebellar samples were snap frozen in liquid nitrogen to assess compound exposure.
(§5) Quantification of compound exposure. Cerebellar tissue samples were homogenized in 4 mL of 20% acetonitrile and 80% Phosphate buffered saline for every 1 g of tissue (5× dilution). Tissue was homogenized using either of the following three methods: hand held probe system, TissueLyser system with 5 mm steel bead at a frequency of 30 s^−1 for 4 min, or OMNI Bead Ruptor Elite homogenizer for 30 seconds to 1 minute depending on tissue type. Tissue samples were added to a 96-well plate (12.5 μL sample) and processed for quantification by mass spectrometry.

cFos mRNA = cFos mRNA induction in cortex of wild-type mice (quantitative PCR); assay type: in vivo, C57BL/6J male mice; settings: one hour after administration
Description: Compound administration and brain tissue collection.
Quantification of cFos mRNA induction. Tissue homogenization was performed using TissueLyser system for 96 well plates (Qiagen). First, frozen cortical samples were thawed, removed from RNAlater, and placed into TissueLyser tubes along with Buffer RLT containing 0.5% Reagent DX and one 5 mm TissueLyser metal bead. The TissueLyser tubes were loaded into a TissueLyser II tissue homogenizer for 3 rounds of homogenization, with each round lasting 5 minutes at 30 Hz bead-beating frequency. Total RNA was purified from the homogenate using RNeasy 96 Plus kit (Qiagen), RNA concentration and A260/A280 ratio were quantified via the Nanodrop (ThermoFisher), and all samples were normalized to 100 ng/μl concentration. RNA was reverse transcribed into cDNA using the Superscript III First-strand synthesis SuperMix Kit (ThermoFisher). For each sample, 6 μl of RNA (600 ng total) was mixed with 1 μL of Oligo dT and 1 μL of annealing buffer and heated to 65° C. for 5 minutes. Next, 10 μL of 2× First-Strand Reaction Mix and 2 μL of the Enzyme mix were added to achieve a total reaction volume of 20 μL. The samples were heated to 50° C. for 50 minutes then 85° C. for 5 minutes to complete cDNA synthesis.
Quantitative PCR was performed on the cDNA samples using Quantitect Multiplex RT-PCR kit (Qiagen) in a 384-well assay format. Each PCR well contained 2 μL of cDNA (60 ng total), 10 μL of RT-PCR mastermix, 1 μL of cFos FAM Taqman probe (Mm00487425_m1 (FAM) #4351368), 1 μL of GAPDH VIC Taqman probe (Mm99999915-g1 (VIC) #4448486), 0.2 μL of Multiplex RT mix and 5.8 μl of RNase-free water. On the ViiA7 Real-Time PCR system (ThermoFisher), the samples were heated to 95° C. for 15 minutes then cycled between 94° C. for 45 seconds and 60° C. for 45 seconds for 45 cycles. cFos Ct values were exported, normalized to GAPDH Ct values, and converted to relative fold change in expression using the delta-delta Ct relative quantification method. cFos fold changes between compound treatments and vehicle were analyzed by one-way ANOVA, followed by Tukey's post-hoc comparisons.

[5] = Compound exposure in wild-type mice (cerebellum and blood, mass spectrometry); settings: male, C57BL/6J, mouse, brain (cerebellum) and whole blood, ip
Description: as §4, §5

T1 sequence (Q13936 whole entry): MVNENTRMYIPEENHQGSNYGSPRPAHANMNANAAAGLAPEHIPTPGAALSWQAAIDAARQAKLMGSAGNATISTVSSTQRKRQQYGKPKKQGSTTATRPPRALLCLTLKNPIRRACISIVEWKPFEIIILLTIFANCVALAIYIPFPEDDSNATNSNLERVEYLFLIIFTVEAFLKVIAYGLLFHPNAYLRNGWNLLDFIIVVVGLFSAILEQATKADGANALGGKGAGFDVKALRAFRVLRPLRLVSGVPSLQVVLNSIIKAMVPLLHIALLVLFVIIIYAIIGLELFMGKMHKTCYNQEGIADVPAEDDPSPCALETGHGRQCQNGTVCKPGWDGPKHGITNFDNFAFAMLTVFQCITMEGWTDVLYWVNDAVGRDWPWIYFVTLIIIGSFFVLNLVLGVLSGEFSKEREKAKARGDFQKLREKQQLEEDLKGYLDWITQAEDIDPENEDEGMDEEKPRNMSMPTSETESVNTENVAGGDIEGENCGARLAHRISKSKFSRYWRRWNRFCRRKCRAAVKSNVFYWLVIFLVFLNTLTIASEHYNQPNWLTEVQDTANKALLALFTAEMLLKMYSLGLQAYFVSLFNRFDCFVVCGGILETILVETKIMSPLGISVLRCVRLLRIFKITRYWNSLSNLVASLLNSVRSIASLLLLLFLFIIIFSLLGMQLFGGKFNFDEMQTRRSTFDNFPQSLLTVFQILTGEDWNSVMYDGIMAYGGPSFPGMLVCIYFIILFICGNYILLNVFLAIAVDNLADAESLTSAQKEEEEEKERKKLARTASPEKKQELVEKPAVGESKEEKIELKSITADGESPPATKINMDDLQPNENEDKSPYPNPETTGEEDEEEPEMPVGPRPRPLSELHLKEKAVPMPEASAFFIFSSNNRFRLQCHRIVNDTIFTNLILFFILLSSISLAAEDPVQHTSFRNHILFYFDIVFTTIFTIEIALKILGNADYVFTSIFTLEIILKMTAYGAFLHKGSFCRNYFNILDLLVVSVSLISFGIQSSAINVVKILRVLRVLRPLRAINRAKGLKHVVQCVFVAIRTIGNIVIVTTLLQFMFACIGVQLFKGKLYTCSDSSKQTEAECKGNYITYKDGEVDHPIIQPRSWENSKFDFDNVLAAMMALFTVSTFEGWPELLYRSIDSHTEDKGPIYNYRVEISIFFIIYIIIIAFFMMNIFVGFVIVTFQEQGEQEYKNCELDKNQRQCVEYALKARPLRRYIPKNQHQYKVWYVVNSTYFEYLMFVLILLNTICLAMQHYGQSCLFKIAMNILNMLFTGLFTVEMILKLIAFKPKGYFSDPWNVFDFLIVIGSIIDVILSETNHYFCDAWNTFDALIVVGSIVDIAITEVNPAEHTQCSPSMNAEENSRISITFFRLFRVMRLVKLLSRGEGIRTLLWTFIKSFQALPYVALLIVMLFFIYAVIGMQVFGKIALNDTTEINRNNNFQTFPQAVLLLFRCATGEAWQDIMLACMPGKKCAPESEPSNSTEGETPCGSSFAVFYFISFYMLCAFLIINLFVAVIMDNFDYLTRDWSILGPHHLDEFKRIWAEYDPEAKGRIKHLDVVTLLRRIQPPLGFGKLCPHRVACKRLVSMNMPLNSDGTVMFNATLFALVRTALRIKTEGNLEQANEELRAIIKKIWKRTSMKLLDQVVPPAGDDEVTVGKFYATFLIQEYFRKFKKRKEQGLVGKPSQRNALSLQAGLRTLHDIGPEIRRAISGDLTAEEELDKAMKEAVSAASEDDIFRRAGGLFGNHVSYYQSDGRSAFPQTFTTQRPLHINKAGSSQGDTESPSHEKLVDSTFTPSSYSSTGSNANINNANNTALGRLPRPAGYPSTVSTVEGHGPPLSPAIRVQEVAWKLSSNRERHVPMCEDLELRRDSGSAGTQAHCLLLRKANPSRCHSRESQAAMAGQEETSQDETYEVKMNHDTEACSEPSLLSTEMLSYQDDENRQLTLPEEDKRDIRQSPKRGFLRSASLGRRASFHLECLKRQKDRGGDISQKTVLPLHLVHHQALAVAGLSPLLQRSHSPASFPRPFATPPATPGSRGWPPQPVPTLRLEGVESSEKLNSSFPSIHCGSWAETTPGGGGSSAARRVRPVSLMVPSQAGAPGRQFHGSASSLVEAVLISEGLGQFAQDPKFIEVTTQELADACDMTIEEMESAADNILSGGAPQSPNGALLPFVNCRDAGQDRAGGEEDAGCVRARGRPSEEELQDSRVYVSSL
T1 sequence (Q9NY47 19-1001 partner limits assumed): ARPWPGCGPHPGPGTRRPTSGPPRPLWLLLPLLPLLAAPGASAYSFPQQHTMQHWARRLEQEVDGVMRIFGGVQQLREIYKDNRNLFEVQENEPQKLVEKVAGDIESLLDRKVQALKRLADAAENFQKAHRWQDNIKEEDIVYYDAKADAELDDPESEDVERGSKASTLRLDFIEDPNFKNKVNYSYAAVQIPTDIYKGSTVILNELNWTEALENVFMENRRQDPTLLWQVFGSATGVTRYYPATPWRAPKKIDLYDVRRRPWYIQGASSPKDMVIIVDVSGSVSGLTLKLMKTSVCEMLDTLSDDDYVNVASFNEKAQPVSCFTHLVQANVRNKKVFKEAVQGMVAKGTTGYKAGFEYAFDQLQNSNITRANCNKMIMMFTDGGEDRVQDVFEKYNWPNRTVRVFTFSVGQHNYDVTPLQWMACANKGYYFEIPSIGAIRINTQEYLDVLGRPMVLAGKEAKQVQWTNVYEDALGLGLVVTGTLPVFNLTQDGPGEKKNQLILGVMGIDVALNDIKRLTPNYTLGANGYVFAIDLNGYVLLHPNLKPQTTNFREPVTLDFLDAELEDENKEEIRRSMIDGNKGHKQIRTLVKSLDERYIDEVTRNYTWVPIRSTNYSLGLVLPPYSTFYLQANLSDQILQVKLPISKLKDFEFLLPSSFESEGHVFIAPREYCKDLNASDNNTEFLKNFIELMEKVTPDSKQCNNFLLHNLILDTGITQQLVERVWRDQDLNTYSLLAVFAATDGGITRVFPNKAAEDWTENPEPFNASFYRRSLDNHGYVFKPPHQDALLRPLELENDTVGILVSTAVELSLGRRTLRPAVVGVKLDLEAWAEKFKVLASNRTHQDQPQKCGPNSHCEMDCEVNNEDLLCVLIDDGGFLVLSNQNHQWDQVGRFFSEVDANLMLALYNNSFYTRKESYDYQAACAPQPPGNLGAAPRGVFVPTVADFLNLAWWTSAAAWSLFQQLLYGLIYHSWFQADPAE
T1 sequence (Q9NY47 1002-1150 partner limits assumed): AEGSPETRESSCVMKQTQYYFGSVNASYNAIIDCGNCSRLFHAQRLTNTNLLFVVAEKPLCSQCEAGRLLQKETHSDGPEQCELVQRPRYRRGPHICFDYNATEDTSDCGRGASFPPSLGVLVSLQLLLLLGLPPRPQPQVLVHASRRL
T1 sequence (Q08289 whole entry partner): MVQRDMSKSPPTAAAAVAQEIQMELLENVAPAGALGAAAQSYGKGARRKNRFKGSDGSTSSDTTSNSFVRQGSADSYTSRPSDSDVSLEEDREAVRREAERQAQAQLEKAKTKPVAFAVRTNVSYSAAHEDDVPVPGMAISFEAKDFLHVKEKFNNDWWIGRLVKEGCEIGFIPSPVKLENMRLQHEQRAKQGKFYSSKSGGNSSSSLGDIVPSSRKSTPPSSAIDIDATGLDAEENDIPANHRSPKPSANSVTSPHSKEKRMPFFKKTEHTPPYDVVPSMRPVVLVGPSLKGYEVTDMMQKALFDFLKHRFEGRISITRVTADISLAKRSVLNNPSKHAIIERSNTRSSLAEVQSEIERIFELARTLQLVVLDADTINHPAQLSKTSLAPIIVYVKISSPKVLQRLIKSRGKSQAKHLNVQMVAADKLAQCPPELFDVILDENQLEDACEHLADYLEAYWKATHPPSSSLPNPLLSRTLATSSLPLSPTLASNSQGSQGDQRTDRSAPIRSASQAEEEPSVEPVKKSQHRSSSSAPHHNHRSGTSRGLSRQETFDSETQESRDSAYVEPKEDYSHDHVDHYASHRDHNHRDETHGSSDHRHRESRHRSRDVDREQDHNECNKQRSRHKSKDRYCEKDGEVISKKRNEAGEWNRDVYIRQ

Structure (SMILES) | EC50 (human Cav1.2 [1]) [nM] | QPatch Emax (human Cav1.2 [2]) | Biophysics voltage shift (human Cav1.2 [3]) [mV] | Brain:blood ratio [4] | % ↑cFOS mRNA cortex (3 mg/kg ip) (cFos mRNA) [%] | % ↑cFOS mRNA cortex (10 mg/kg ip) (cFos mRNA) [%] | Kp at 1 h [5] | EC50 (human Cav1.2 [2]) [nM]
COC(=O)C1=C(C)NC2=C(C(=O)OC2)[C@H]1c1cccc(F)c1C1CC1(F)F (single isomer, unassigned) [Example 2, Methyl (S)-4-(2-((S or R)-2.2-difluorocyclopropyl)-3-fluorophenyl)-2-methyl-5-oxo-1,4,5,7-tetrahydrofuro[3,4-b]pyridine-3-carboxylate] | 170 | 1.6 | −1.9 | 3.4 | 23 | 203 |  | 
COC(=O)C1=C(C)NC2=C(C(=O)OC2)[C@H]1c1cccc(F)c1[C@H]1CC1(F)F (single isomer, unassigned) [Example 1, Methyl (S)-4-(2-((R or S)-2,2-difluorocyclopropyl)-3-fluorophenyl)-2-methyl-5-oxo-1,4,5,7-tetrahydrofuro[3,4-b]pyridine-3-carboxylate] |  | 2.0 | −4.5 |  | 169 | 350 | 1.1 | 130
COC(=O)C1=C(C)NC2=C(C(=O)OC2)[C@H]1c1cc(F)cc(F)c1[C@@H](C)F (single isomer, unassigned) [Example 7, Methyl (S)-4-(3,5-difluoro-2-((S or R)-1-fluoroethyl)phenyl)-2-methyl-5-oxo-1,4,5,7-tetrahydrofuro[3,4-b]pyridine-3-carboxylate] |  | 1.7 | −6.6 |  | 158 |  | 1.7 | 30
COC(=O)C1=C(C)NC2=C(C(=O)OC2)[C@H]1c1cccc(F)c1C(C)C (single isomer, unassigned) [Example 15] |  | 2 | −6.6 |  | 169 |  | 1.3 | 50

Source: patent US11453679B2, “Methyl 2-methyl-5-oxo-1,4,5,7-tetradhydrofuro[3,4-b]pyridine-3-carboxylate compounds as Cav1.2 activators” (Novartis AG, priority 2020, dated 2022)
